Experimental data: PMC10082216 (Nature Communications, 2023)
Where two headings read alike, the source gives them in different places.

System: mature stage V gametocytes (NF54 strain)
Experiment: microbe, parasite or virus in culture
Type: cell-based, Plasmodium falciparum
Conditions: for IC50 / IC90: Plasmodium falciparum; for IC90: NF54, read-out: Retention IC90; for Retention IC10: Fig. 3 dose-response
Procedure, shortened: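 NF54 stage V gametocytes (day 17, density-purified, 0.5% hematocrit) exposed 24 h to compounds at 1.11 µM (primary) or in dose-response. Killing scored by MitoTracker staining; gametocytemia by Sybr Green/CellMask staining, with microsphiltration for stiffening. DMSO 0.05% negative control.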

[1] = NF54, 24 h, read-out: Stiffening IC50 (retention)

Row | SMILES | Retention 1 (Concentration 0.00457) | Retention 2 (Concentration 0.00457) | Retention 1 (Concentration 0.01372) | Retention 2 (Concentration 0.01372) | Retention 1 (Concentration 0.04115) | Retention 2 (Concentration 0.04115) | Retention 1 (Concentration 0.12346) | Retention 2 (Concentration 0.12346) | Retention 1 (Concentration 0.37037) | Retention 2 (Concentration 0.37037) | Retention 1 (Concentration 1.11111) | Retention 2 (Concentration 1.11111) | Retention 1 (Concentration 3.33333) | Retention 2 (Concentration 3.33333) | Retention 1 (Concentration 10) | Retention 2 (Concentration 10) | IC50 [1] [nM] | IC90 [nM] | Retention IC10 [nM] | also measured
1 | COc1cc2c(cc1OC)[C@@H]1Cc3ccc(OC)c(OC)c3CN1CC2 [(S)-(-)-Tetrahydropalmatine] | 36.1518 | 18.1904 | 42.4295 | 17.9082 | 39.0679 | 21.6203 | 52.9692 | 17.6021 | 34.5737 | 33.9194 | 41.4215 | 25.646 | 50.7426 | 20.0803 | 49.3139 | 22.5855 | 1 | 6 | – | –
2 | C[C@H]1Cc2c([nH]c3cc(Cl)c(F)cc23)[C@@]2(N1)C(=O)Nc1ccc(Cl)cc12 [NITD609, cipargamin] | 5.495 | 24.2833 | 19.4986 | 27.3994 | 24.1896 | 16.3872 | 74.5556 | 59.61 | 100 | 100 | 100 | 94.1314 | 100 | 100 | 100 | 100 | 110 | 160 | 60 | –
3 | CNC(=O)N1C[C@@H](C)N(c2ccc(C(=O)Nc3ccc(-c4ccc(-c5c[nH]c([C@@H]6CCCN6C(=O)[C@@H](NC(=O)OC)C(C)C)n5)cc4)c(OC(F)(F)F)c3)cn2)C[C@@H]1C [TD-6450] | 6.791 | 14.2035 | 30.2208 | 10.7025 | 30.7002 | 37.9062 | 45.793 | 33.0106 | 16.5379 | 35.496 | 46.8849 | 58.9321 | 60.4317 | 53.8901 | 70.8882 | 66.7706 | 550 | 4500 | 30 | outcome of primary screen (hit definition) (1.11 µM): met the hit definition; IC50 (NF54, read-out: IC50 during the screening campaign, all gametocytes stained): 455 ± 304 nM; differential retention rate versus DMSO upon primary screening (one well/compound, 1.11 µM): 32%
